Values quoted from earlier work in US6825040B2, “Method of using a vapor acid test kit” (Mainstream Engineering Corporation, priority 1995, dated 2004).
Like-named read-outs stand apart in the source and are kept apart here.

Experiments:
[1] = pH range of the indicator colour change
[2] = negative log of the dissociation equilibrium constant of the indicator

SMILES | pH Range [1] | pKa [2] | pH Range ([1]; listed as Thymol blue)
Cc1c(C2(c3cc(Br)c(O)c(Br)c3C)OS(=O)(=O)c3ccccc32)cc(Br)c(O)c1Br [Bromocresol green, Tetrabromo-m-cresolsulfonephthalein] | 4.0 to 6.8 | 4.58 | 
Cc1c(C2(c3cc(C(C)C)c(O)c(Br)c3C)OS(=O)(=O)c3ccccc32)cc(C(C)C)c(O)c1Br [Bromothymol blue, Dibromothymolsulfonephthalein] | 6.2 to 7.6 |  | 
O=S1(=O)OC(c2ccc(O)c(Cl)c2)(c2ccc(O)c(Cl)c2)c2ccccc21 [Chlorophenol red, Dichlorophenolsulfonephthalein] | 5.4 to 6.8 | 6.0 | 
Cc1cc(O)c(C(C)C)cc1C1(c2cc(C(C)C)c(O)cc2C)OS(=O)(=O)c2ccccc21 [Thymol blue (acid range), Thymolsulfonephthalein] | 1.2 to 2.8 |  | 8.0 to 9.6
Cc1cc(O)c(C(C)C)cc1C1(c2cc(C(C)C)c(O)cc2C)OC(=O)c2ccccc21 [Thymolphthalein] | 9.4 to 10.6 | 10.0 | 
O=S(=O)([O-])c1ccc(N=Nc2ccc(Nc3ccccc3)cc2)cc1.[Na+] [Tropeolin 00, Diphenylamino-p-benzene sodium sulfonate] | 1.3 to 3.2 |  | 

Further lines, results first:

pH Range [1] | pKa [2] | pH Range ([1]; listed as Thymol blue) | SMILES
5.2 to 6.8 |  |  | Cc1cc(C2(c3cc(C)c(O)c(Br)c3)OS(=O)(=O)c3ccccc32)cc(Br)c1O [Bromocresol purple, Dibromo-o-cresolsulfonephthalein]
5.2 to 6.8 |  |  | O=S1(=O)OC(c2ccc(O)c(Br)c2)(c2ccc(O)c(Br)c2)c2ccccc21 [Bromophenol red, Dibromophenolsulfonephthalein]
3.1 to 4.4 | 3.40 |  | CN(C)c1ccc(N=Nc2ccc(S(=O)(=O)[O-])cc2)cc1.[Na+] [Methyl orange, Dimethylaminoazobenzene sodium sulfonate]
4.4 to 6.2 | 4.95 |  | CN(C)c1ccc(/N=N/c2ccccc2C(=O)O)cc1 [Methyl red, o-Carboxybenzeneazodimethylaniline]
8.0 to 10.0 | 9.4 |  | O=C1OC(c2ccc(O)cc2)(c2ccc(O)cc2)c2ccccc21 [Phenolphthalein]
11.0 to 13.0 |  |  | O=S(=O)([O-])c1ccc(N=Nc2ccc(O)cc2O)cc1.[Na+] [Tropeolin 0, p-Sulfobenzeneazoresorcinol]
